Test results as given in patent publication US20260000670A1 (priority 2022, published 2026).

How the values were obtained:
human whole blood [1] = experiment: AAV8-dependent cytokine release in human whole blood from four healthy donors with IVIG; type: cell-based
Procedure: FIGS. 6A-6C: Dasatinib inhibits AA V8-dependent cytokine release in human whole blood. Fresh whole blood from 4 healthy donors was incubated with either PBS or AAV8-hSEAP (5e11 vg/mL) with IVIG (PRIVIGEN, 1/100) for 24 hrs. Dasatinib was added at the concentration of 50 nM 1 hr before addition of AAV8. In some of the culture wells, a second dose of dasatinib was added 9 hrs after AAV8 treatment (dasa 50 nM 2x). After 24 hrs, the plasma was collected and cytokines measured using Quanterix kits. Depicted are the cytokine fold increases over PBS for IFN-γ and TNF-α (FIG. 6A), IL-6 and IL-1x (FIG. 6B), and IL-2 and IL-1β (FIG. 6C), with the percentages of inhibition in the presence of dasatinib (means +/−SEM).
To study in more detail the effects of dasatinib on AAV-dependent cytokine release, another whole blood assay was performed. Whole blood from four healthy donors was incubated with AAV8-hSEAP (5e11 vg/ml) for 24 hrs. Intravenous Immunoglobulin (IVIG, Privigen) which contains anti-AAV antibodies was added to the blood samples. Dasatinib was added at 50 nM 1 hr before the AAV treatment, PBS was used as a negative control. As the half-life of dasatinib is very short (Lindauer M et al, Recent Results Cancer Res. 2010;184:83-102), a second dasatinib addition was performed 9 hrs after the AAV treatment. After 24 hrs, plasma supernatants were collected and cytokines measured using Quanterix kits. […] Inhibition of AAV-mediated cytokine release likely contributes to the effect of dasatinib on antibody formation.

human whole blood [2] = experiment: AAV-mediated cytokine release in human whole blood (one AAV8 pre-immune donor); type: cell-based; settings: dasatinib 12.5 or 50 nM, 24 hrs with 5E11 vg/mL AAV8-hSEAP
Procedure: FIGS. 5A-5B. Effect of dasatinib on AAV-mediated cytokine release in human whole blood. The production of low levels of IFN-γ and IL-6 in whole blood are stimulated after 24 hrs incubation with 5E11 vg/mL of AAV8-hSEAP. […] Depicted are cytokine concentrations (pg/mL+/−SD, left), fold increases over the level measured in the PBS control (middle) and percentages of inhibition of AAV-dependent cytokine release (right, calculated as 100 × (concentration with AAV8 alone-concentration with AAV8 and dasatinib)/(concentration with AAV8 alone)), respectively. (FIG. 5A) Interferon-γ production. (FIG. 5B) IL-6 production.
To assess whether dasatinib could affect AAV-mediated cytokine release, an assay was performed in whole blood from a healthy donor. This donor was seropositive for anti-AAV8 antibodies (IgG titer: 1/21870; IgM titer: 1/810). Whole blood from an AAV8 pre-immune donor was incubated in triplicates with 5E11 vg/mL (GC/mL) of an AAV8-hSEAP vector, in the presence or absence of 12.5 nM or 50 nM dasatinib. Lipopolysaccharide (LPS) and Lemtrada (alemtuzumab, anti-CD52, Genzyme), a monoclonal antibody known to induce strong cytokine release in blood, were used as positive controls at a concentration of 1 μg/ml and 0.1 μg/ml respectively. […] After 24 hrs, plasma supernatants were collected and cytokines measured using Quanterix kits with the SP-X imaging and analysis system (Simoa).

[3] = dasatinib 50 nM, 24 hrs, AAV8-hSEAP 5e11 vg/ml with IVIG

Cc1nc(Nc2ncc(C(=O)Nc3c(C)cccc3Cl)s2)cc(N2CCN(CCO)CC2)n1 [dasatinib, N-(2-chloro-6-methylphenyl)-2-[[6-[4-(2-hydroxyethyl)-1-piperazinyl]-2-methyl-4-pyrimidinyl]amino]-5-thiazole carboxamide monohydrate]
inhibited: production of IFN-Y (human whole blood [1]; [3]) | production of IL-1β (human whole blood [1]; [3]) | production of IL-2 (human whole blood [1]; [3]) | production of IL-6 (human whole blood [1]; [3]) | production of IL-la (human whole blood [1]; [3]) | production of TNF-α (human whole blood [1]; [3])
more pronounced: inhibition of cytokine production with second dasatinib addition versus single addition (human whole blood [1]; dasatinib 50 nM added both 1 hr before and 9 hrs after AAV treatment)
reduced dose-dependently: IFN-γ production (human whole blood [2]) | IL-6 production (human whole blood [2])
